One data set relates to Artemia. The experiment in a line: Toxicity against brine shrimp. It is filed as organism-based. The following applies: in vivo.
Data set [1] deals with Agrobacterium tumefaciens. In words: Antitumor activity assessed as inhibition of Agrobacterium tumefaciens B6-induced tumor formation after 12 days by potato disk assay. The class given is functional.
The next data set concerns Staphylococcus aureus. The experiment in a line: Antimicrobial activity against Staphylococcus aureus ATCC 25293 by serial dilution method. The class given is functional.

Consider 10 compounds from ChEMBL document CHEMBL1158906, “Biological Activities of Avarol Derivatives, 1. Amino Derivatives” (J Nat Prod, 1990).

SMILES strings stand for the structures. Values after ≈ are worked out from the molar mass of the structure shown.

By LC50 is commonly meant the concentration that kills 50% of the test population. The low end stands for a more lethal substance, the high end for a less lethal substance. Broadly, the MIC is the smallest concentration in the dilution series that meets the test's criterion for growth inhibition. The low end stands for greater potency, the high end for weaker potency.

Compound `CCNC1=CC(=O)C=C(C[C@]2(C)[C@@H](C)CC[C@]3(C)C(C)=CCC[C@@H]23)C1=O` displayed an LC50 in the data set with Artemia of 0.81 ppm. Besides, the “inhibition (INH)” value in data set [1] turned out to be 54%. Besides, in the data set with Staphylococcus aureus, the MIC was more than 100 µg/mL.
Compound `CC1=CCC[C@H]2[C@](C)(CC3=CC(=O)C(N[C@@H](C)C(=O)O)=CC3=O)[C@@H](C)CC[C@]12C` had an LC50 in the data set with Artemia of 2 ppm. Also, the “inhibition (INH)” value in data set [1] was 38%. Further, in the data set on Staphylococcus aureus, the MIC is 6.25 µg/mL (≈ 15.6 µM).
On the same counts, the results for `CC1=CCC[C@H]2[C@](C)(CC3=CC(=O)C=C(N)C3=O)[C@@H](C)CC[C@]12C` are 0.24 ppm, 53% and 50 µg/mL (≈ 153 µM).
The corresponding values for `CC1=CCC[C@H]2[C@](C)(CC3=CC(=O)C(N[C@@H]4[C@@H](O)[C@H](O)[C@@H](CO)O[C@H]4O)=CC3=O)[C@@H](C)CC[C@]12C` are 11.5 ppm, 38% and 6.25 µg/mL (≈ 12.8 µM).
The corresponding values for `CC1=CCC[C@H]2[C@](C)(CC3=CC(=O)C(N)=CC3=O)[C@@H](C)CC[C@]12C` are 0.23 ppm, 55% and 50 µg/mL (≈ 153 µM).
`CNC1=CC(=O)C(C[C@]2(C)[C@@H](C)CC[C@]3(C)C(C)=CCC[C@@H]23)=CC1=O` displayed an LC50 in the data set with Artemia of 0.34 ppm. Moreover, the “inhibition (INH)” value in data set [1] is given as 57%. This compound had an MIC against Staphylococcus aureus of more than 100 µg/mL.
As to `CCNC1=CC(=O)C(C[C@]2(C)[C@@H](C)CC[C@]3(C)C(C)=CCC[C@@H]23)=CC1=O`, in the data set on Artemia, the median lethal concentration (LC50) came out at 0.27 ppm. Moreover, in data set [1], the “inhibition (INH)” value was 38%. In addition, the MIC against Staphylococcus aureus is more than 100 µg/mL.
For `CC1=CCC[C@H]2[C@](C)(Cc3cc(=O)c4[nH]c5ncnc6ncn(c=4c3=O)c65)[C@@H](C)CC[C@]12C`, the LC50 with Artemia was 70.2 ppm. For the same compound, the “inhibition (INH)” value in data set [1] amounted to 27%. Besides, in the data set on Staphylococcus aureus, it took 12.5 µg/mL (≈ 28.2 µM) to inhibit growth (MIC).
The compound `CC1=CCC[C@H]2[C@](C)(CC3=CC(=O)C=CC3=O)[C@@H](C)CC[C@]12C` [AVARONE] yielded an LC50 with Artemia of 0.14 ppm. Moreover, the “inhibition (INH)” value in data set [1] amounted to 63%. Further, in the data set on Staphylococcus aureus, the MIC amounted to 1.56 µg/mL (≈ 4.99 µM).
In the data set with Staphylococcus aureus, `CC1(C)S[C@@H]2[C@H](NC(=O)Cc3ccccc3)C(=O)N2[C@H]1C(=O)[O-].[Na+]` [PENICILLIN G SODIUM] returned an MIC of 0.04 µg/mL.
